Experimental findings from US9723860B2, “Method for improving economic performance in poultry husbandry” (PURAC BIOCHEM BV, priority 2012, dated 2017) are described below.

The test system of this assay is Broiler chickens. The experiment in a line: Example 2: 20 day performance of broilers on decreasing levels of lactylate mixture or diclazuril. It is filed as in vivo, chicken (broilers). The settings on record: day 20. From the text: Broilers were reared on a diet containing either decreasing levels of a mixture of lauric and myristic lactylates (lactylate test diet), or an effective dose of diclazuril (coccidiostat diet), or a filler consisting of corn starch and kaolin. The birds fed the test diet including the lactylates received the lactylates from the first feed onwards. For the first 10 days, the dosing level of lactylates was 0.4%. From day 11 onwards, the dosing level was reduced to 0.3%. At day 20, the economic performance of the broilers was evaluated using the body weight, body weight gain, feed consumption and feed-to-gain ratio.

Setting [1] is: lactylates 0.4% first 10 days, 0.3% from day 11, diclazuril effective dose, in diet.

For `N#CC(c1ccc(Cl)cc1)c1c(Cl)cc(-n2ncc(=O)[nH]c2=O)cc1Cl` (centres unmarked) [Coccidiostat, diclazuril], the “economic performance versus control group” value is “did not improve performance”. Also, under setting [1], the Body weight turned out to be 850 g, the Body weight gain turned out to be 804 g, the “Feed Consumption” value was determined as 1115 g and the Feed-to-Gain ratio is on record as 1.388 g/g.
